Experimental data reported in patent US12403147B2, “Treatment of ocular inflammation following ocular surgery” (Oculis Operations Sàrl, priority 2019, dated 2025).
In brackets after ≈: the same amount, converted by molar mass.

Legend:
[1] = 25° C.; cited from earlier work
[2] = Method: For facilitating the interpretation of obtained results, the stress conditions of described studies should be converted to the condition of the currently running long term stability program for an eye drop formulation. For this purpose, the values of pH drop for stock formulations stored in glass containers from the study were compared with pH drop profile for a clinical batch stored at 25° C. in LDPE plastic containers without antioxidant (STS).

| storage time during which the antioxidant can stabilize the formulation [2] | Compound | solubility in pure water [1] [mg/mL] |
| --- | --- | --- |
| – | OC[C@H]1O[C@@H]2O[C@H]3[C@H](O)[C@@H](O)[C@@H](O[C@H]4[C@H](O)[C@@H](O)[C@@H](O[C@H]5[C@H](O)[C@@H](O)[C@@H](O[C@H]6[C@H](O)[C@@H](O)[C@@H](O[C@H]7[C@H](O)[C@@H](O)[C@@H](O[C@H]1[C@H](O)[C@H]2O)O[C@@H]7CO)O[C@@H]6CO)O[C@@H]5CO)O[C@@H]4CO)O[C@@H]3CO [α-cyclodextrin] | 129.5 ± 0.7 (≈ 133 mM) |
| at least 1 year | DL-Tartaric acid | – |
| – | OC[C@H]1O[C@@H]2O[C@H]3[C@H](O)[C@@H](O)[C@@H](O[C@H]4[C@H](O)[C@@H](O)[C@@H](O[C@H]5[C@H](O)[C@@H](O)[C@@H](O[C@H]6[C@H](O)[C@@H](O)[C@@H](O[C@H]7[C@H](O)[C@@H](O)[C@@H](O[C@H]8[C@H](O)[C@@H](O)[C@@H](O[C@H]9[C@H](O)[C@@H](O)[C@@H](O[C@H]1[C@H](O)[C@H]2O)O[C@@H]9CO)O[C@@H]8CO)O[C@@H]7CO)O[C@@H]6CO)O[C@@H]5CO)O[C@@H]4CO)O[C@@H]3CO [γ-cyclodextrin] | 249.2 ± 0.2 (≈ 192 mM) |
